From patent US20070270436A1, “NOVEL AMINO- AND IMINO-ALKYLPIPERAZINES” (Recordati Ireland Limited, priority 2006, published 2007)

What was measured:
urinary bladder = test: Cystometric parameters in conscious rats after oral administration; assay type: in vivo, rat; details: 3 mg/kg p.o., 1-5 h after treatment
Description: Male Sprague-Dawley rats [Crl: CD® (SD) IGS BR] of 300-400 g body weight supplied by Charles River Italia were used. The animals were housed with free access to food and water and maintained on a forced 12-hour-light/12-hour-dark cycle at 22-24° C. of temperature, except during the experiment. To quantify urodynamic parameters in conscious rats, cystometrographic studies were performed according to the procedure previously reported (Guarneri et al., Pharmacol. Res. 24: 175, 1991).
Briefly, the rats were anaesthetised by intraperitoneal administration of 3 ml/kg of Equithensin solution (pentobarbital 30 mg/kg and chloral hydrate 125 mg/kg) and placed in a supine position. An approximately 10 mm-long midline incision was made in the shaved and cleaned abdominal wall. The urinary bladder was gently freed from adhering tissues, emptied and then cannulated via an incision in the bladder body, using a polyethylene cannula (0.58-mm internal diameter, 0.96-mm external diameter) which was permanently sutured with silk thread. The cannula was exteriorised through a subcutaneous tunnel in the retroscapular area, where it was connected to a plastic adapter in order to avoid the risk of removal by the animal. For drug testing, the rats were utilised one day after implantation.
On the day of the experiment, the rats were placed in modified Bollman cages, i.e., restraining cages that were large enough to permit the rats to adopt a normal crouched posture, but narrow enough to prevent turning around. After a stabilisation period of about 20 minutes, the free tip of the bladder cannula was connected through a T-shaped tube to a pressure transducer (Statham P23XL) and to a peristaltic pump (Gilson minipuls 2) for continues infusion of a warm (37° C.) saline solution into the urinary bladder, at a constant rate of 0.1 ml/minute. The intraluminal-pressure signal during infusion of saline into the bladder was continuously recorded on a polygraph (Rectigraph-8K San-ei with BM614/2 amplifier from Biomedica Mangoni). The cystometrogram was used to evaluate the urodynamic parameters of bladder volume capacity (BVC) and micturition pressure (MP). BVC (ml) is defined as the volume of saline infused into the bladder necessary to induce detrusor contraction followed by micturition. MP (mmHg) is defined as the maximal intravesical pressure caused by contraction during micturition. Basal BVC and MP values were evaluated as mean of the values observed in the cystometrograms recorded in an initial period of 30-60 minutes. Following determination of basal BVC and MP, the infusion was interrupted and the test compounds were administered orally by a stomach tube. Bladder infusion was resumed and changes in BVC and MP were evaluated from the mean values obtained in the cystometrograms observed during 1, 2, 3, 4 and 5 hours after treatment. Compounds were administered in a volume of 2 ml/kg and groups of control animals received the same amount of vehicle (0.5% methocel in water) orally.
Data were expressed as mean ±standard error. The percent changes of BVC and MP versus the basal values, as well as Δ values (difference in ml or mmHg) of BVC and MP (BVC or MP at time “x” minus basal value), were also evaluated for each rat/time. In the figures, data were reported as % changes versus basal values.
Statistical analysis on BVC and MP values, as well as on Δ values, was performed by S.A.S./STAT software, version 6.12. The observed differences between vehicle (control) and test treatments were evaluated on Δ values of BVC and MP, whereas the differences between the values at different times versus basal values were analyzed on original BVC and MP data.

[1] = tested on: rhythmic bladder-voiding contractions; test: Rhythmic bladder-voiding contractions induced by bladder filling in anaesthetised rats; assay type: in vivo, rat; details: intravenous administration
Description: Female Sprague-Dawley rats weighing 225-275 g (Crl: CD® (SD) IGS BR, Charles River Italia) were used. The animals were housed with free access to food and water and maintained on a forced 12-hour alternating light-dark cycle at 22-24° C. for at least one week, except during the experiment. The activity on rhythmic bladder voiding contractions was evaluated according to the method of Dray (Dray J., Pharmacol. Methods, 13:157, 1985), with some modifications as in Guarneri (Guarneri, Pharmacol. Res. 27:173, 1993). Briefly, the rats were anaesthetised by subcutaneous injection of 1.25 g/kg (5 ml/kg) urethane, after which the urinary bladder was catheterised via the urethra using PE 50 polyethylene tubing filled with physiological saline. The catheter was tied in place with a ligature around the external urethral orifice and was connected to conventional pressure transducers (Statham P23 ID/P23 XL). […] The bladder was then filled via the recording catheter by incremental volumes of warm (37° C.) saline until reflex bladder-voiding contractions occurred (usually 0.8-1.5 ml). For intravenous injection of bioactive compounds, PE 50 polyethylene tubing filled with physiological saline was inserted into the jugular vein.
From the cystometrogram, the number of contractions recorded 15 minutes before (basal values) and after treatment, as well as the mean amplitude of these contractions (mean height of the peaks in mmHg), was evaluated.
Since most compounds produced an effect that was relatively rapid in onset and led to a complete cessation of bladder contractions, bioactivity was conveniently estimated by measuring the duration of bladder quiescence (i.e., the time during which no contractions occurred). The number of tested animals showing a reduction in the number of contractions higher than 30% of that observed in the basal period was recorded too.
The extrapolated doses which induced a reduction in the number of contractions greater than 30% in 50% of the treated rats (ED50) were also evaluated by the method of Bliss (Bliss C. I., Quart J. Pharm. Pharmacol. 11, 192-216, 1938).

Row | Structure (SMILES) | bladder volume capacity (BVC) (urinary bladder) | micturition pressure (MP) (urinary bladder) | ED50 (frequency) (extrapolated dose inducing a reduction of the number of contractions >30% in 50% of treated rats) [1] | ED10 min (extrapolated dose inducing 10 minutes of disappearance of the contractions) [1]
1 | COc1ccccc1N1CCN(CCC(c2ccccc2F)C(C2CCCCC2)N(C)C(C)=O)CC1 (racemic) [Example 16, (RS,SR)- and (RS,RS)-N-{-1-Cyclohexyl-2-(2-fluorophenyl)-4-[4-(2-methoxyphenyl)piperazin-1-yl]butyl}-N-methylacetamide] | effective in increasing | without significant effects | 0.031 mg/kg | 0.072 mg/kg
2 | COc1ccccc1N1CCN(CC[C@@H](c2ccccc2F)[C@H](NC(=S)N(C)C)C2CCCCC2)CC1 (racemic) [Example 24, 3-{(RS,SR)-1-Cyclohexyl-2-(2-fluorophenyl)-4-[4-(2-methoxyphenyl)-piperazin-1-yl]butyl}-1,1-dimethylthiourea] | significantly increased | slight but significant reduction |  | 
